Assay results reported in paper PMC11156899, “High-throughput screening unveils nitazoxanide as a potent PRRSV inhibitor by targeting NMRAL1” (Nature Communications, 2024).

Legend:
[1] = system: PRRSV (VR-2332, GSWW-15, GSWW-18); experiment: Viral titers of VR-2332, GSWW-15 and GSWW-18 in Marc-145 cells; type: cell-based, Porcine Reproductive and Respiratory Syndrome Virus; details: all three strains
Method: Viral solutions were serially diluted by a factor of 10. Samples containing varying concentrations of virus (100 μL each) were combined with DMEM containing 2% FBS (100 μL) and added to wells; control wells were virus-free. […] Relative quantification qRT-PCR was used to assess PRRSV gene expression, normalized using the 2^−ΔΔCt method in Design & Analysis Software (v2.6.0). Absolute quantification qRT-PCR was used for viral copy number detection, with RNA concentration normalization prior to analysis, as described in our previous publication. Primers used included: PRRSV 5′-[…]′ and 5′-[…]-3′; Marc-145-GAPDH 5′-[…]-3′ and 5′-[…]-3′; PAM-GAPDH 5′-[…]-3′ and 5′-[…]-3′; IFNβ 5′-[…]-3′ and 5′-[…]-3′; Human-GAPDH 5′-[…]-3′ and 5′-[…]-3′.
(§1) Supplementary Fig. 3: Cytotoxicity and Antiviral Efficacy of NTZ.
(§2) PRRSV capsid protein positive
(§3) (primary antibody SR30, green) and nuclei (DAPI, blue).

[2] = pig, in vivo, po
Method: Blood samples were collected from the anterior vena cava for complete blood count using a PE-6800VET analyzer (Prokan) and biochemical analysis using a VetTest Plasma Chemistry Analyzer (IDEXX). Reference ranges were obtained from Iowa State University College of Veterinary Medicine (https://vetmed.iastate.edu/vpath/services/diagnostic-services/clinical-pathology/testing-and-fees/reference-intervals). IHC were performed as previously described, involving 24-h incubation with SR30 antibody (1:400) and subsequent treatment with HRP-labeled secondary antibody.
Supplementary Fig. 6: Complete Blood Counts and Biochemical Analysis.
Six animals from the same enclosure were divided into three groups (n = 2) and fed different doses of NTZ twice daily for three
consecutive days, with a 12-hour interval. Parameters measured included White Blood Cell (WBC) counts, Lymphocyte (LYM)
percentages, Monocyte (MONO) counts, Neutrophil (NEU) counts, Red Blood Cell (RBC) counts, Hemoglobin (HGB)
concentration, Mean Corpuscular Hemoglobin (MCH), Mean Corpuscular Hemoglobin Concentration (MCHC), Platelet (PLT)
counts, Albumin (ALB) concentration, Total Protein (TP) concentration, Glucose (GLU) levels, Alkaline Phosphatase (ALP)
levels, Total Bilirubin (TBIL) levels, and Blood Urea Nitrogen (BUN) concentration. The grey areas in each panel represent the
reference ranges for these indices.

[3] = system: PRRSV (GSWW-18 strain); experiment: Anti-PRRSV dose-response (EC50, IFA) in PAM cells; type: cell-based, Porcine Reproductive and Respiratory Syndrome Virus; details: PAM cells
[4] = system: PRRSV GSWW-18 strain; experiment: In vivo antiviral effect in swine infected with GSWW-18 strain; design: species or system pig; details: for PRRSV dynamics in blood within 24 h: 48 h post infection
[5] = Cytotoxicity assay (CC50) in MARC-145 cells; type: cell-based; details: African green monkey, 48 h of exposure, CCK-8
From the text: Control wells contained DMEM with 0.5% DMSO.
as §1, §2, §3

[6] = system: PRRSV GSWW-15; experiment: EC50 against GSWW-15 strain on PAM cells; type: cell-based; details: Porcine reproductive and respiratory syndrome virus
From the text: as §1, §2, §3

[7] = system: PRRSV VR-2332; experiment: Time-of-addition and lifecycle-stage experiments in Marc-145 cells; type: cell-based, Porcine Reproductive and Respiratory Syndrome Virus
From the text: The pronounced antiviral phenotype led us to explore the mechanism behind NTZ’s inhibition of PRRSV proliferation. We adopted a classic approach of administering the drug at various time points to study NTZ’s effect on the PRRSV lifecycle (Supplementary Fig. 9a). […] Identifying the target protein of NTZ became imperative. Using the isothermal shift assay (iTSA), we discovered 26 potential NTZ targets (Fig. 5a). Further, Cellular Thermal Shift Assay-Western Blot (CETSA-WB) temperature range (TR) experiment indicated Glycine amidinotransferase mitochondrial (GATM), NMRAL1, and PRRSV proteins NSP1α and NSP12 as potential NTZ targets (Fig. 5b, c). The compound concentration range (CCR) experiment also supported these four proteins as potential NTZ targets (Fig. 5d).
Supplementary Fig. 9: NTZ Inhibition of PRRSV Replication Stages.
(a) Schematic of the classic experimental approach of adding the drug at different time points. […]
(c) Viral inactivation (dark purple): PRRSV was pre-incubated with the compound for 1 hour in the incubator before transferring to monolayer Marc-145 cells, followed by medium change after 2 hours. […] All samples were collected and analyzed at 48 […]
hours. […] NS indicates P > 0.0332, calculated via two-way ANOVA with Dunnett’s multiple-comparison test (b and c); P-values < 0.0332 were considered significant.

[8] = in vitro; details: pig
Method: (§4) A concentration-gradient screening strategy was employed for 141 compounds using indirect immunofluorescence assay (IFA). […] Data are mean ± SEM.
(§5) Cells were seeded in 96-well plates and grown in DMEM supplemented with 10% FBS. Upon reaching confluence, compounds were diluted to varying concentrations in 2% FBS-containing medium. Control wells contained DMEM with 0.5% DMSO. Treated cells were incubated at 37 °C in a 5% CO2 humidified environment for 48 or 72 h, followed by cytotoxicity assessment as outlined in our previous work[21]. […]

[9] = system: Porcine alveolar macrophages (PAM); experiment: in vitro
Method: as §4, §5

[10] = treatment group, only 25 mg/kg, P < 0.0001

Structure (SMILES): CC(=O)Oc1ccccc1C(=O)Nc1ncc([N+](=O)[O-])s1 [Nitazoxanide]
- relation of concentration to viral titers [1]: negative correlation
- adverse reactions (hematology, biochemical indices, clinical activity) [2]: No adverse reactions
- IFA inhibitory effect on PRRSV ([3]; GSWW-18): dose-dependent inhibitory effect
- EC50 ([3]; Porcine reproductive and respiratory syndrome virus, mean ± SEM, n = 2, unit only on axis title, read-out: EC50): 0.31 ± 0.147 µM
- PRRSV dynamics in blood within 24 h ([4]; 5 mg/kg oral at 0 h and 12 h): viral loads decreased from 2 h to 8 h post administration
- PRRSV dynamics in blood within 24 h ([4]; 10 mg/kg oral at 0 h and 12 h): more pronounced inhibition
- body temperature and weight ([4]; 25 mg/kg oral): alleviated the rise in body temperature and weight loss
- lung PRRSV-positive cells (IHC) ([4]; 25 mg/kg oral, prophylactic and therapeutic groups, vs MOCK): fewer lung PRRSV-positive cells
- clinical symptoms by day 7 ([4]; 25 mg/kg, treatment and prophylactic groups): no apparent clinical symptoms
- interstitial pneumonia with lobar consolidation ([4]; a specific dose of NTZ, PO BID 3 days): significantly mitigated
- fatalities within 14 days ([4]; pig, in vivo): no fatalities
- PRRSV replication in ManLNs, lungs and tonsils ([4]; prophylactic and treatment groups, P < 0.0332): significantly reduced
- PRRSV viral load in blood ([4]; prophylactic group, 5 mg/kg, P = 0.0033): significantly reduced
- viral copy numbers in BALF ([4]; prophylactic group, 10 mg/kg and 25 mg/kg, P < 0.0001): significant effects
- oronasal shedding ([4]; prophylactic group, 10 mg/kg, P = 0.0012): significantly lowered
- anal shedding ([4]; prophylactic group, even at 25 mg/kg): did not reduce
- viral copy numbers in BALF [4, 10]: achieved statistical significance
- virus in ILNs [4, 10]: significantly suppressed
- CC50 at 48 h [5]: ~44 µM
- EC50 [6]: ~1.17 µM
- PRRSV proliferation, late addition ([7]; added 16 h post viral inoculation): significantly inhibited PRRSV proliferation
- stage of PRRSV lifecycle affected ([7]; adsorption, entry, replication, release): primarily affects PRRSV replication
- CC50 at 48 h [8]: ~44 µM
- cytotoxicity (in words) [9]: low cytotoxicity
